Literature values in patent publication US12268663B2, “Method for treating pruritus” (Pruvyc Pharma, LLC, priority 2020, dated 2025).

Experiments:
serotonin S2 receptor = serotonin S2 receptor (Homo sapiens, UniProt P28223)
[1] = tested on: connective tissue mast cells
histamine H1 receptor = histamine H1 receptor (Homo sapiens, UniProt P35367)
Chain of histamine H1 receptor (P35367 whole entry): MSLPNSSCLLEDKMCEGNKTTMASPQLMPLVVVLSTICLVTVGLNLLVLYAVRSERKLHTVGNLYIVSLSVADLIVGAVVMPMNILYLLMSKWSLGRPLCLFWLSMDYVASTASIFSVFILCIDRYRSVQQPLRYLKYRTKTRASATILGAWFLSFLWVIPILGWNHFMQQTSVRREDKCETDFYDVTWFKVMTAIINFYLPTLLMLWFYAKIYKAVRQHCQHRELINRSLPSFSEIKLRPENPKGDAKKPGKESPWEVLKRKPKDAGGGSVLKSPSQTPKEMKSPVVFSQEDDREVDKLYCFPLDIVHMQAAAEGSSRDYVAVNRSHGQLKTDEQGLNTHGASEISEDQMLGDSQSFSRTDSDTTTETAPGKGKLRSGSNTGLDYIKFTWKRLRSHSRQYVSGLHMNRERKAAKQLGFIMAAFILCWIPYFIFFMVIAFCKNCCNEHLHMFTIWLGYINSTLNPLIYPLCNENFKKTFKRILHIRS

Chain of serotonin S2 receptor (P28223 whole entry): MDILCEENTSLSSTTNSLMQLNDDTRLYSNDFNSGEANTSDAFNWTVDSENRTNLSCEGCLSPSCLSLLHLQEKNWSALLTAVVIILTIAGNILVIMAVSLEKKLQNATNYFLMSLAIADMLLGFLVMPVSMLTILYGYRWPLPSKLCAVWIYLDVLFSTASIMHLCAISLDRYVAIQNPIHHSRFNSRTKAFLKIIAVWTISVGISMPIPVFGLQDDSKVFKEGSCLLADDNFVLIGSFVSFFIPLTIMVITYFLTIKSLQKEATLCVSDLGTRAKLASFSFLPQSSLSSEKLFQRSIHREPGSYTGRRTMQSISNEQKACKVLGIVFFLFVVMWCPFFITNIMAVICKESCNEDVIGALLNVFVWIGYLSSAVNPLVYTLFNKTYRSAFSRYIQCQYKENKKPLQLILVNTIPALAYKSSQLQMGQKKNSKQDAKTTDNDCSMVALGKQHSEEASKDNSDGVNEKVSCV

binding to serotonin S2 receptor (serotonin S2 receptor): bind
binding to histamine H1 receptor (histamine H1 receptor): bind
SMILES: CN(C)CC/C=C1/c2ccccc2COc2ccc(CC(=O)O)cc21 [Olopatadine, olopatadine]
allergic mediator release from connective tissue mast cells [1]: inhibits allergic mediator release
